The values that follow come from paper PMC2809098, “HH Domain of Alzheimer’s Disease Aβ Provides Structural Basis for Neuronal Binding in PC12 and Mouse Cortical/Hippocampal Neurons” (PLoS ONE, 2010).

No end group written: not given here.

In assay [1] the target is T1, immobilized Aβ40 fibrils (Homo sapiens, UniProt P05067).
T1 construct: made in house; host or cells: chemical solid-phase peptide synthesis (CEM Liberty synthesizer)
Nature of the assay: Surface plasmon resonance binding to immobilized Aβ40 fibrils. Particulars: read-out: ka. A general note: SPR reads the build-up and loss of mass on a sensor chip optically.
Protocol: Surface Plasmon Resonance (SPR) analyses were performed at 25 °C using Biacore 3000 optical biosensors with research grade CM5 chips (Biacore, Uppsala, Sweden). […] The binding sensograms were recorded following the injection of freshly prepared peptides over the immobilized surface for 5 min at a flow rate of 30 µl/min. The dissociation profile was monitored for about 15 min, and then the surface was regenerated with two short 8 sec injections of 50 mM NaOH. Extensive validation studies were performed to ensure that Aβ fibrils immobilized on the chip retained their binding characteristics even after the regeneration procedure. Kinetic data analysis was performed using Biaevaluation software (Version 3.2) provided by Biacore Inc., Uppsala, Sweden.

Assay [2] concerns amyloid plaques in APP, PS1 mouse brain sections. As to the kind of experiment: Labeling of amyloid plaques in brain sections with radioiodinated peptides, emulsion autoradiography. Particulars: 100 pM radioiodinated peptide, 3 hrs, unfixed 15 µm cryosections, 20-month old APP, one day of exposure. It counts as binding. As to the method:
HPLC-purified ^125I-Aβ40, ^125I-Aβ40 H13G, ^125I-Aβ40 H13R, ^125I-Aβ40 H13,14G or buffer was incubated in vitro with unfixed cryosections (15 µm) of brain from a 20-month old APP, PS1 AD transgenic mouse using the same procedure used previously. The rodent Aβ was not evaluated because the peptide lacks a tyrosine amino acid for radioiodination. Briefly, the sections were incubated for 3 hrs with 100 pM radioiodinated peptide or alone in 250 µl of TBS (50 mM Tris HCl, 138 mM sodium chloride, pH 7.0) containing 0.1% BSA, 0.6 mg/ml magnesium chloride, 0.04 mg/ml bacitracin, 0.002 mg/ml chymostatin, and 0.004 mg/ml leupeptin. After rinsing and air drying overnight at 4°C., the sections were fixed in formalin for 5 min and then underwent immunoperoxidase histochemistry (IH) for amyloid using an anti-Aβ monoclonal mouse antibody (4G8, 1∶1000, Signet Laboratories, Dedham, MA). Next, the sections were dipped in an autoradiographic emulsion (Type NTB-3, Kodak, Rochester, NY) for direct comparison of ^125I-peptide labeling to anti-Aβ IH. The slides were dipped in emulsion, exposed for various durations, and developed according to the instructions. The sections were dehydrated with successive changes of ethanol and xylene and then coverslipped.

T1 sequence (P05067 672-711): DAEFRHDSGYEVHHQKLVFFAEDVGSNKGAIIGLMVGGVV

Take “DAEFGHDSGFEVRHQKLVFFAEDVGSNKGAIIGLMVGGVV [Aβ40 R5G, Y10F, H13R, Aβ1-40 R5G, Y10F, H13R]”: the kon at 75 µM in assay [1] was determined as 31 M⁻¹ s⁻¹.

For the substance “^125I-Aβ40 H13,14G: radioiodinated Aβ40 H13,14G”, in assay [2], the “labeling of amyloid plaques” value is reported as “labeled amyloid plaques equally well”.

Consider ^125I-Aβ40 H13G, for which the “labeling of amyloid plaques” value in assay [2] was “labeled amyloid plaques equally well”.

In the case of ^125I-Aβ40 H13R, in assay [2], the “labeling of amyloid plaques” value is “labeled amyloid plaques equally well”.

“^125I-Aβ40: radioiodinated Aβ40 [reference compound]”: the “labeling of amyloid plaques” value in assay [2] is given as “labeled amyloid plaques equally well”.
